Measured values as given in patent US20260263623A1, “STAPLED PEPTIDE-ANTIBODY CONJUGATES (SPACS) AND USES THEREOF” (priority 2021, published 2026).

Assays:
[1] = system: HER2+++ p53 mut breast cancer cell line (SK-BR-3); assay: 72 hour cytotoxicity assay (CellTiter-Glo), SK-BR-3; format: cell-based; details: SK-BR-3, highly expresses HER2, mutated p53 (insensitive to MDM2 inhibition); FIG. 6B
Description: (§1) Cell culture: Cell lines were maintained in appropriate medium supplemented with fetal bovine serum to a final concentration of 10%.
(§2) 72 hour cytotoxicity assay: Cells were plated in a 96-well format, and after 24 hour incubation, serial dilutions of SPACs from a 1 mg/mL stock, or vehicle, were then added to the cells in a final volume of 100 μl. After incubating at 37° C. for 72 hours, 100 μl of CellTiter-Glo® reagent was added to the cells, and the plates were incubated 15 minutes at room temperature. Luminescence was then measured on a microplate reader.

[2] = system: MCF7 cell line with low HER2 expression (HER2+), p53 WT; assay: 72 hour cytotoxicity assay (CellTiter-Glo), MCF7; format: cell-based; details: wild-type p53 (sensitive to MDM2 inhibition), FIG. 6A
Description: as §1, §2

Trastuzumab emtansine
activity (efficacy vs concentration) [1]: shows efficacy at relatively low concentration
anti-proliferative activity [2]: no activity
